Like-named read-outs stand apart in the source and are kept apart here.
What was measured:
[1] = molecular target: T1, Recombinant STAT3 protein (STAT3 (G127-I722)) (Homo sapiens, UniProt P40763); experiment: STAT3 Fluorescence Polarization (FP) Assay; type: binding; conditions: STAT3 (G127-I722) 25 nM, probe 5-FAM-GpYLPQTV-NH2 2 nM, 45-minute incubation; read-out: STAT3 (FP assay IC50 class)
T1 construct: Recombinant STAT3 protein (STAT3 (G127-I722))
Summary of the method: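 Read-out is fluorescence polarization (mP) after 45 min at room temperature, with IC50 fitted by nonlinear regression against log compound concentration. Mixture: 25 nM STAT3 (G127-I722), 2 nM 5-FAM-GpYLPQTV-NH2 phosphopeptide, 10 mM HEPES pH 7.4 buffer, 1% DMSO.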

[2] = molecular target: T2, Recombinant STAT6 protein (STAT6 (W123-T658)) (Homo sapiens, UniProt P42226); experiment: STAT6 Fluorescence Polarization (FP) Assay; type: binding; conditions: STAT6 (W123-T658) 250 nM, 45-minute incubation, read-out: STAT6 (FP assay IC50 class)
T2 construct: Recombinant STAT6 protein (STAT6 (W123-T658))
T2 sequence (P42226 123-658): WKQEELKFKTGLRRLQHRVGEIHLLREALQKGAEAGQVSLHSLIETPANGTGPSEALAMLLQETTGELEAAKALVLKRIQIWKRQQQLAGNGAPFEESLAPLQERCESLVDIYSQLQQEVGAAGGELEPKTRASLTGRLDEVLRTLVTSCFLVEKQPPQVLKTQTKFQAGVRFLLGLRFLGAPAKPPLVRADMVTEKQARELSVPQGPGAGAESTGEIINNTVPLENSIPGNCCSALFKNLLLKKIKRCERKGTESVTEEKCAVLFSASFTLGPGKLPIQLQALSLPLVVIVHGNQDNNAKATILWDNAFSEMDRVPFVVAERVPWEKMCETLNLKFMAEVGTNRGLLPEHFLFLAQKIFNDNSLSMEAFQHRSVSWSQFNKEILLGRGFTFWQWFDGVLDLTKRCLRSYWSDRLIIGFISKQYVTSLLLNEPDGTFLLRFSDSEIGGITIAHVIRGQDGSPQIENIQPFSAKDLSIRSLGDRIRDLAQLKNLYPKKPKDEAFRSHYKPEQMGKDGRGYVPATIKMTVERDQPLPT
Summary of the method: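 Protein-probe mix (250 nM STAT6 W123-T658, 2 nM 5-FAM-pTyr peptide) in 10 mM HEPES pH 7.4, 50 mM NaCl, 1 mM EDTA, 0.05% Tween 20, 2 mM DTT; added to compound dilution series, 1% DMSO final; 45 min RT; FP read; IC50 via nonlinear regression.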

T1 sequence (P40763 127-722): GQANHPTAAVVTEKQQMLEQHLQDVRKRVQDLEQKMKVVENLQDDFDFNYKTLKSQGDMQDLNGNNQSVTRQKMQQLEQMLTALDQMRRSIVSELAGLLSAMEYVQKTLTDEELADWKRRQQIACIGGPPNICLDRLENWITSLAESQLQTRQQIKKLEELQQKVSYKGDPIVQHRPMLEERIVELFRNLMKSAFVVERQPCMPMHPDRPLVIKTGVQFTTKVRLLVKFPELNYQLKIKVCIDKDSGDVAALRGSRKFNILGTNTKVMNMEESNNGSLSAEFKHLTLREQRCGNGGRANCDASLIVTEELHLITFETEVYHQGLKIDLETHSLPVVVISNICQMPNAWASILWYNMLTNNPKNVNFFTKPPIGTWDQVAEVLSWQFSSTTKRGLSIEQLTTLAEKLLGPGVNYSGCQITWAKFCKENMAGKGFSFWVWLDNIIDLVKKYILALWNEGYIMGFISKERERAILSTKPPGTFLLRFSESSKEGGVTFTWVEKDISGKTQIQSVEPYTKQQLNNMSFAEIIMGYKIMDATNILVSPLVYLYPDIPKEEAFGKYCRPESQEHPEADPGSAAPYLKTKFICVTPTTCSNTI

| Compound | IC50 [1] | IC50 ([2]; probe 5-FAM-Ap[…]-NH2 2 nM) | IC50 ([2]; probe 5-FAM-ApYKPFQDLI-NH2 2 nM) |
| --- | --- | --- | --- |
| O=C(N[C@H]1CCC[C@H]2CC[C@@H](C(=O)N3CC(c4cnccc4-n4ccnc4)C3)N2C1=O)c1cc2cc([C@@H](F)P(=O)(O)O)ccc2s1 [Compound 853, ((S)-(2-(((3S,6S,9aS)-3-(3-(4-(1H-imidazol-1-yl)pyridin-3-yl)azetidine-1-carbonyl)-5-oxooctahydro-1H-pyrrolo[1,2-a]azepin-6-yl)carbamoyl)benzo [b]thiophen-5-yl)fluoromethyl) phosphonic acid] | 1 to 10 µM | 3 to 30 µM |  |
| COCCN(C)c1ccncc1C1CN(C(=O)[C@@H]2CC[C@@H]3CCC[C@H](NC(=O)c4cc5cc([C@@H](F)P(=O)(O)O)ccc5s4)C(=O)N32)C1 [Compound 855, ((S)-fluoro(2-(((3S,6S,9aS)-3-(3-(4-((2-methoxyethyl) (methyl)amino)pyridin-3-yl)azetidine-1-carbonyl)-5-oxooctahydro-1H-pyrrolo[1,2-a]azepin-6-yl)carbamoyl)benzo [b]thiophen-5-yl)methyl) phosphonic acid] | < 0.1 µM | 3 to 30 µM |  |
| COCC1CN(c2ccncc2C2CN(C(=O)[C@@H]3CC[C@@H]4CCC[C@H](NC(=O)c5cc6cc([C@@H](F)P(=O)(O)O)ccc6s5)C(=O)N43)C2)C1 [Compound 856, ((S)-fluoro(2-(((3S,6S,9aS)-3-(3-(4-(3-(methoxymethyl)azetidin-1-yl)pyridin-3-yl)azetidine-1-carbonyl)-5-oxooctahydro-1H-pyrrolo[1,2-a]azepin-6-yl)carbamoyl)benzo [b]thiophen-5-yl)methyl) phosphonic acid] | < 0.1 µM | 0.3 to 3 µM |  |
| COC1CN(c2ccncc2C2CN(C(=O)[C@@H]3CC[C@@H]4CCC[C@H](NC(=O)c5cc6cc([C@@H](F)P(=O)(O)O)ccc6s5)C(=O)N43)C2)C1 [Compound 859, ((S)-fluoro(2-(((3S,6S,9aS)-3-(3-(4-(3-methoxyazetidin-1-yl)pyridin-3-yl)azetidine-1-carbonyl)-5-oxooctahydro-1H-pyrrolo[1,2-a]azepin-6-yl)carbamoyl)benzo [b]thiophen-5-yl)methyl) phosphonic acid] | < 0.1 µM | 0.3 to 3 µM |  |
| C[C@@H]1COCCN1c1ccncc1C1CN(C(=O)[C@@H]2CC[C@@H]3CCC[C@H](NC(=O)c4cc5cc(CP(=O)(O)O)ccc5s4)C(=O)N32)C1 [Compound 860, ((2-(((3S,6S,9aS)-3-(3-(4-((R)-3-methylmorpholino)pyridin-3-yl)azetidine-1-carbonyl)-5-oxooctahydro-1H-pyrrolo[1,2-a]azepin-6-yl)carbamoyl)benzo [b]thiophen-5-yl)methyl) phosphonic acid] | 0.1 to 1 µM | 3 to 30 µM |  |
| CN(C)c1ncncc1C1CN(C(=O)[C@@H]2CC[C@@H]3CCC[C@H](NC(=O)c4cc5cc(CP(=O)(O)O)ccc5s4)C(=O)N32)C1 [Compound 863, ((2-(((3S,6S,9aS)-3-(3-(4-(dimethylamino)pyrimidin-5-yl)azetidine-1-carbonyl)-5-oxooctahydro-1H-pyrrolo[1,2-a]azepin-6-yl)carbamoyl)benzo [b]thiophen-5-yl)methyl) phosphonic acid] | < 0.1 µM | 3 to 30 µM |  |
| O=C(N[C@H]1CCC[C@H]2CC[C@@H](C(=O)N3CC(c4cccnc4)C3)N2C1=O)c1cc2cc(CP(=O)(O)O)c(F)cc2[nH]1 [Compound 864, ((6-fluoro-2-(((3S,6S,9aS)-5-oxo-3-(3-(pyridin-3-yl)azetidine-1-carbonyl)octahydro-1H-pyrrolo[1,2-a]azepin-6-yl)carbamoyl)-1H-indol-5-yl)methyl) phosphonic acid] | > 10 µM | 3 to 30 µM |  |
| O=C(N[C@H]1CCCC[C@H]2CC[C@@H](C(=O)N3CCC(c4cc[nH]c(=O)c4)C3)N2C1=O)c1ccc2ccc(C(F)(F)P(=O)(O)O)cc2c1 (stereo partly drawn) [Compound 866, (difluoro(7-(((3S,6S,10aS)-5-oxo-3-(3-(2-oxo-1,2-dihydropyridin-4-yl)pyrrolidine-1-carbonyl)decahydropyrrolo[1,2-a]azocin-6-yl)carbamoyl)naphthalen-2-yl)methyl) phosphonic acid] | 0.1 to 1 µM | ≤ 0.3 µM |  |
| O=C(N[C@H]1CCC[C@H]2CC[C@@H](C(=O)N3CC(c4cccnc4)C3)N2C1=O)c1cc2cc([C@H](F)P(=O)(O)O)ccc2s1 [Compound 870, ((R)-fluoro(2-(((3S,6S,9aS)-5-oxo-3-(3-(pyridin-3-yl)azetidine-1-carbonyl)octahydro-1H-pyrrolo[1,2-a]azepin-6-yl)carbamoyl)benzo [b]thiophen-5-yl)methyl) phosphonic acid] | < 0.1 µM | 3 to 30 µM |  |
| O=C(N[C@H]1CCC[C@H]2CC[C@@H](C(=O)N3CC(c4cccnc4)C3)N2C1=O)c1cc2cc([C@@H](F)P(=O)(O)O)ccc2s1 [Compound 873, ((S)-fluoro(2-(((3S,6S,9aS)-5-oxo-3-(3-(802yridine-3-yl)azetidine-1-carbonyl)octahydro-1H-pyrrolo[1,2-a]azepin-6-yl)carbamoyl)benzo [b]thiophen-5-yl)methyl) phosphonic acid] | < 0.1 µM |  | 3 to 30 µM |
| O=C(N[C@H]1CCCC[C@H]2CC[C@@H](C(=O)N3CC(c4cc[nH]c(=O)c4)CC34CC4)N2C1=O)c1ccc2ccc(C(F)(F)P(=O)(O)O)cc2c1 (stereo partly drawn) [Compound 877, (difluoro(7-(((3S,6S,10aS)-5-oxo-3-(6-(2-oxo-1,2-dihydropyridin-4-yl)-4-azaspiro[2.4]heptane-4-carbonyl)decahydropyrrolo[1,2-a]azocin-6-yl)carbamoyl)naphthalen-2-yl)methyl) phosphonic acid] | 1 to 10 µM | ≤ 0.3 µM |  |
| O=C(N[C@H]1CCCC[C@H]2CC[C@@H](C(=O)N3CC(c4ccccc4)CC34CC4)N2C1=O)c1ccc2ccc(C(F)(F)P(=O)(O)O)cc2c1 (stereo partly drawn) [Compound 880, (difluoro(7-(((3S,6S,10aS)-5-oxo-3-(6-phenyl-4-azaspiro[2.4]heptane-4-carbonyl)decahydropyrrolo[1,2-a]azocin-6-yl)carbamoyl)naphthalen-2-yl)methyl) phosphonic acid] | 1 to 10 µM | ≤ 0.3 µM |  |
| O=C(N[C@H]1CCCC[C@H]2CC[C@@H](C(=O)N3C[C@H](c4cc[nH]c(=O)c4)CC34CC4)N2C1=O)c1ccc2ccc(CP(=O)(O)O)cc2c1 [Compound 882, ((7-(((3S,6S,10aS)-5-oxo-3-((S)-6-(2-oxo-1,2-dihydropyridin-4-yl)-4-azaspiro[2.4]heptane-4-carbonyl)decahydropyrrolo[1,2-a]azocin-6-yl)carbamoyl)naphthalen-2-yl)methyl) phosphonic acid] | 1 to 10 µM | 0.3 to 3 µM |  |
| O=C(N[C@H]1CCCC[C@H]2CC[C@@H](C(=O)N3C[C@@H](c4cc[nH]c(=O)c4)CC34CC4)N2C1=O)c1ccc2ccc(CP(=O)(O)O)cc2c1 [Compound 883, ((7-(((3S,6S,10aS)-5-oxo-3-((R)-6-(2-oxo-1,2-dihydropyridin-4-yl)-4-azaspiro[2.4]heptane-4-carbonyl)decahydropyrrolo[1,2-a]azocin-6-yl)carbamoyl)naphthalen-2-yl)methyl) phosphonic acid] | 1 to 10 µM | 0.3 to 3 µM |  |
| O=C(N[C@H]1CCCC[C@H]2CC[C@@H](C(=O)N3CC(c4ccccc4)CC34CC4)N2C1=O)c1ccc2ccc(CP(=O)(O)O)cc2c1 (stereo partly drawn) [Compound 884, ((7-(((3S,6S,10aS)-5-oxo-3-(6-phenyl-4-azaspiro[2.4]heptane-4-carbonyl)decahydropyrrolo[1,2-a]azocin-6-yl)carbamoyl)naphthalen-2-yl)methyl) phosphonic acid] | 1 to 10 µM | 0.3 to 3 µM |  |
